Assay results published in patent US20250214965A1, “COMPOUND AS KIF18A INHIBITOR” (Hangzhou Innogate Pharma Co., Ltd., priority 2021, published 2025).
Where two headings read alike, the source gives them in different places.

Experiments:
HCC1806 = assay: Inhibition of proliferation of breast cancer cell line HCC1806 (CellTiter Glo); assay type: cell-based; conditions: read-out: HCC1806 IC50
OVCAR-3 = assay: Inhibition of proliferation of ovarian cancer cell line OVCAR-3 (CellTiter Glo); assay type: cell-based; conditions: read-out: OVCAR-3 IC50
[1] = rat, in vivo, po, 3 mg/kg
Experimental: (§1) Instruments: XEVO TQ-S LC/MS instrument was produced by Waters. All measurement data were collected and processed by Masslynx V4.1 software, and the data were calculated and processed by Microsoft Excel. The statistical moment method of WinNonLin 8.0 software was used to calculate the pharmacokinetic parameters. These mainly include kinetic parameters Tmax, T1/2, Cmax, AUC0-24h etc. Column: ACQUITY UPLC BEH C18 (2.1 mm×50 mm, 1.7 m); column temperature 40° C.; mobile phase A is water (0.1% formic acid), mobile phase B is acetonitrile, flow rate is 0.350 mL/min, gradient elution is adopted, the elution gradient is 0.50 min: 10% B; 1.50 min: 90% B; 2.50 min: 90% B; 2.51 min: 10% B; 3.50 min: stop. Injection volume: 1 μL.
(§2) Animals: 3 male SD rats with a weight range of 200-220 g were purchased and kept in the laboratory of the Experimental Animal Center for 2 days and then used. They were fasted for 12 hours predose and 4 hours after dosing. Drinking water was free during the test. After the rats were gavage, blood samples were taken according to the established time point.
(§3) Solvent: 0.4% ethanol+0.4% Tween80+99.2% (0.5% methylcellulose M450). Preparation of the solution for intragastrical administration: the compounds were accurately weighed and added to the solvent, and ultrasound was used at room temperature for 5 minutes to completely dissolve the drug, and a 0.3 mg/mL medicinal solution was prepared.
(§4) Pharmaceutical samples: Generally, multiple samples with similar structures (with a molecular weight difference of more than 2 units) are taken, accurately weighed, and administered together (cassette PK). In this way, multiple compounds can be screened at the same time and their oral absorption rates can be compared. A single administration was also used to study the pharmacokinetics of the drug sample in rats.
(§5) After intragastrical administration, blood was taken from the orbit at 0.25, 0.5, 1, 2, 4, 8, 10 and 24 hours. Then 50 μL of the plasma sample was taken and added 200 μL of acetonitrile (including internal standard control verapamil 2 ng/mL), vortexed for 3 min and centrifuged at 20000 rcf, 4° C. for 10 min. The supernatant plasma was used for LC-MS/MS analysis.
(§6) The compounds were accurately weighed to prepare different concentrations, and quantitative analysis on mass spectrometry was performed to establish a standard curve, and then the concentration of the above-mentioned compound in the plasma was tested to obtain its concentration at different time points. All measurement data were collected and processed by relevant software, and the statistical moment method was used to calculate the pharmacokinetic parameters (mainly including kinetic parameters Tmax, T1/2, Cmax, AUC0-24h etc).

KIF18A = KIF18A (Homo sapiens (Human), UniProt Q8NI77); assay: Inhibition of KIF18A enzyme activity (ADP-Glo); assay type: biochemical; conditions: 60 min at 25° C.
Experimental: The ADP-Glo method was used to test the enzymatic activity of KIF18A. The compound was diluted 3-fold with DMSO at a starting concentration of 3000 nM, for a total of ten concentrations, and tested in duplicate. Echo was used to transfer 25 nL of the diluted compound to a 384-well plate, and 2.5 μL of enzyme working solution was added. Plate was centrifuged at 1000 rpm for 1 min, and incubated at 25° C. for 10 min. 2.5 μL of ATP and substrate solution was added to start the reaction, and plate was incubated at 25° C. for 60 min. 4 μL of ADP-Glo solution was added to the 384-well plate, and plate was incubated at 25° C. for 40 min. 8 μL of detection solution was added and incubated at 25° C. for 40 min, and BMG was used to read the […] value. Inhibition rate was calculate according to the following formula: Inhibition rate (%)=(DMSO well−compound well)/(DMSO well−blank control well)×100%. The IC50 value of each compound was analyzed using the nonlinear regression method of XLFit 5.5.0 software. The formula is: Y=Bottom+(Top−Bottom)/(1+10^((Log IC50−X)*HillSlope)).

HCC1954 = assay: Inhibition of proliferation of breast cancer cell line HCC1954 (CellTiter Glo); assay type: cell-based; conditions: HCC1954 cells, 96 hours
[2] = Pharmacokinetic study in rats
Experimental: as §1, §2, §3, §4, §5, §6

[3] = Homo sapiens, HCC1806 cells, 96 hours, CellTiter Glo
[4] = Homo sapiens, OVCAR-3 cells, 96 hours, CellTiter Glo
[5] = male, SD, rat, plasma, po, 3 mg/kg

Chain of KIF18A (Q8NI77 whole entry): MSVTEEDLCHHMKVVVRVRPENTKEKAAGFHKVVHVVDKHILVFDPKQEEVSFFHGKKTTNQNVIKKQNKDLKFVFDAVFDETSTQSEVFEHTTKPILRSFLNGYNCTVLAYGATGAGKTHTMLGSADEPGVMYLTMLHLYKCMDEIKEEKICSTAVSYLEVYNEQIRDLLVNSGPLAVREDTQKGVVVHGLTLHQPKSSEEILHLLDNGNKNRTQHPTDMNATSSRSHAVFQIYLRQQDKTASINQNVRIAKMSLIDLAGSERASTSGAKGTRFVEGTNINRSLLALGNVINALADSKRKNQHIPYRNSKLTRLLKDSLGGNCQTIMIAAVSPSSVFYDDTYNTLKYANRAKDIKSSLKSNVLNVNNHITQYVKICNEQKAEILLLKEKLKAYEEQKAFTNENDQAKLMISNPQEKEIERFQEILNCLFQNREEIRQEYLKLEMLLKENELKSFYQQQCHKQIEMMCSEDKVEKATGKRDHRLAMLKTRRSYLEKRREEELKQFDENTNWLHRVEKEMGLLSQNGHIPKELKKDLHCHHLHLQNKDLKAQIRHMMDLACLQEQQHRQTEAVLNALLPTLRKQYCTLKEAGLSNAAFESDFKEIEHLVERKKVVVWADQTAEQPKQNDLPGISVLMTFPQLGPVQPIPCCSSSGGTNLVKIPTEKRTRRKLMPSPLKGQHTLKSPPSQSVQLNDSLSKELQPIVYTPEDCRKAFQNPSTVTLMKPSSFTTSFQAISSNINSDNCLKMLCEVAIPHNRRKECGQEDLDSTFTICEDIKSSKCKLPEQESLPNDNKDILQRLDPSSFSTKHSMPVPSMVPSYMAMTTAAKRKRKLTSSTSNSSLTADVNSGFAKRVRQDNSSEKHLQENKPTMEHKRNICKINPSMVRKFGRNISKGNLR

## CC(C)(C)NS(=O)(=O)c1cccc(NC(=O)c2ccc(NC(C)(C)CO)nc2N2CCC(=C(F)F)CC2)c1 [Compound 62]
HCC1806; [3]
  IC50: < 500 nM
OVCAR-3; [4]
  IC50: < 200 nM

## C[C@@H]1CN(c2cccc(NC(=O)c3ccc(NS(=O)(=O)C4(CN5CC(O)C5)CC4)cc3N3CCC4(CC3)CC4)n2)CCO1 [Compound 32]
HCC1806; [3]
  IC50: < 1000 nM
OVCAR-3; [4]
  IC50: < 1500 nM

## Cc1cc(NC(=O)c2ccc(NS(=O)(=O)CCO)cc2N2CCC(=C(F)F)CC2)nc(N2CCC(F)(F)CC2)n1 [Compound 33]
HCC1806
  IC50: < 200 nM
[1]
  AUC0-24 h: 10273.88 ng·h/mL
  Cmax: 717.6 ng/mL
  T1/2: 7.05 h
  Tmax: 8.00 h
KIF18A
  IC50: < 50 nM
HCC1954
  IC50: < 75 nM
OVCAR-3
  IC50: < 75 nM

## Cc1cc(NC(=O)c2ccc(NS(=O)(=O)C3(CO)CC3)cc2N2CCC(=C(F)F)CC2)nc(N2CCC(F)(F)CC2)n1 [Compound 51]
HCC1806; [3]
  IC50: < 200 nM
[2]; [5]
  AUC(0-t): 424 ng·h/mL
  Cmax: 43.3 ng/mL
  Tmax: 4.67 h
  half-life: 6.68 h
HCC1954; Homo sapiens
  IC50: < 100 nM
OVCAR-3; [4]
  IC50: < 50 nM

## C=C(C)C1CCN(c2cc(NS(=O)(=O)C3(C)CC3)ccc2C(=O)Nc2cccc(S(=O)(=O)NC(C)(C)C)c2)CC1 [Compound 36]
OVCAR-3; [4]
  IC50: < 200 nM

## CC(C)(C)NS(=O)(=O)c1cccc(NC(=O)c2ccc(S(=O)(=O)NC(C)(C)C)cc2N2CCC(=C(F)F)CC2)c1 [Compound 63]
HCC1806; [3]
  IC50: < 75 nM
HCC1954; Homo sapiens
  IC50: < 50 nM
OVCAR-3; [4]
  IC50: < 50 nM

## CC(C)=C1CCN(c2cc(NS(=O)(=O)CCO)ccc2C(=O)Nc2cc(C)nc(N3CCC(F)(F)CC3)n2)CC1 [Compound 35]
OVCAR-3; [4]
  IC50: < 500 nM

## C[C@@H]1CN(c2cccc(NC(=O)c3ccc(NS(=O)(=O)C4(CN5CCC5)CC4)cc3N3CCC4(CC3)CC4)n2)CCO1 [Compound 30]
HCC1806; [3]
  IC50: < 1000 nM
OVCAR-3; [4]
  IC50: < 500 nM

## CC(C)(CO)Nc1ccc(C(=O)Nc2cccc(S(=O)(=O)C3CCCC3)c2)c(N2CCC(=C(F)F)CC2)n1 [Compound 59]
HCC1806; [3]
  IC50: < 200 nM
HCC1954; Homo sapiens
  IC50: < 75 nM
OVCAR-3; [4]
  IC50: < 75 nM

## C[C@@H]1CN(c2cccc(NC(=O)c3ccc(NS(=O)(=O)CCO)cc3N3CCC(=C(F)F)CC3)n2)CCO1 [Compound 53]
HCC1954; Homo sapiens
  IC50: < 50 nM
OVCAR-3; [4]
  IC50: < 50 nM

## Cc1cc(NC(=O)c2ccc(NS(=O)(=O)C3CC(O)C3)cc2N2CCC3(CC2)CC3)nc(N2CCC(F)(F)CC2)n1 (stereo not shown) [Compound 47]
HCC1954; Homo sapiens
  IC50: < 75 nM
OVCAR-3; [4]
  IC50: < 50 nM

## Cc1cc(NC(=O)c2ccc(NS(=O)(=O)[C@H](C)CO)cc2N2CCC(=C(F)F)CC2)nc(N2CCC(F)(F)CC2)c1 [Compound 82]
[2]; [5]
  AUC(0-t): 4520 ng·h/mL
  Cmax: 363 ng/mL
  Tmax: 4.67 h
  half-life: 5.01 h

## Cc1cc(NC(=O)c2ccc(NS(=O)(=O)C3(CO)CC3)cc2N2CCC3(CC2)CC3)nc(N2CCC(=C(F)F)CC2)n1 [Compound 13]
HCC1806; [3]
  IC50: < 500 nM
OVCAR-3; [4]
  IC50: < 500 nM

## CP(=O)(c1cccc(NC(=O)c2ccc(NCCO)nc2N2CCC3(CC2)CC3)c1)C1CCCC1 (stereo not shown) [Compound 46]
OVCAR-3; [4]
  IC50: < 1500 nM

## CCc1cc(NC(=O)c2ccc(NS(=O)(=O)CCO)cc2N2CCC(=C(F)F)CC2)nc(N2CCC(F)(F)CC2)n1 [Compound 75]
OVCAR-3; [4]
  IC50: < 200 nM

## Cc1cc(NC(=O)c2ccc(NS(=O)(=O)C(C)CO)cc2N2CCC3(CC2)CC3)nc(N2CCC(=C(F)F)CC2)n1 (stereo not shown) [Compound 3C]
HCC1806; [3]
  IC50: < 500 nM
OVCAR-3; [4]
  IC50: < 200 nM

## Cc1cc(NC(=O)c2ccc(NS(=O)(=O)CCO)cc2N2CCC(=C(F)F)CC2)cc(N2CCC(F)(F)CC2)c1 [Compound 56]
HCC1806
  IC50: < 100 nM
[2]; male SD rats, oral 3 mg/kg
  AUC0-24 h: 2051.53 ng·h/mL
  Cmax: 175.28 ng/mL
  T1/2: 3.83 h
  Tmax: 4.00 h
KIF18A
  IC50: < 50 nM
HCC1954
  IC50: < 75 nM
OVCAR-3
  IC50: < 50 nM

## CC(C)(C)NS(=O)(=O)c1cccc(NC(=O)c2ccc(S(=O)(=O)C3(C)COC3)cc2N2CCC(=C(F)F)CC2)c1 [Compound 67]
HCC1806; [3]
  IC50: < 1000 nM
OVCAR-3; [4]
  IC50: < 500 nM

## CC(C)(C)NS(=O)(=O)c1cccc(NC(=O)c2ccc(NS(=O)(=O)CCO)cc2N2CCC(=C(F)F)CC2)c1 [Compound 41]
OVCAR-3; [4]
  IC50: < 50 nM

## Cc1cc(NC(=O)c2ccc(NS(=O)(=O)CCO)cc2N2CCC(=C(F)F)CC2)nc(N2CCC(F)(F)CC2)c1 [Compound 48]
HCC1806
  IC50: < 50 nM
[1]
  AUC0-24 h: 1724.65 ng·h/mL
  Cmax: 153.57 ng/mL
  T1/2: 4.91 h
  Tmax: 4.00 h
KIF18A
  IC50: < 50 nM
HCC1954
  IC50: < 50 nM
OVCAR-3
  IC50: < 50 nM

## Cc1cc(NC(=O)c2ccc(NS(=O)(=O)[C@H](C)CO)cc2N2CCC(=C(F)F)CC2)nc(N2CCC(F)(F)CC2)n1 [Compound 68]
HCC1806; [3]
  IC50: < 100 nM
[2]; [5]
  AUC(0-t): 3330 ng·h/mL
  Cmax: 227 ng/mL
  Tmax: 6.67 h
  half-life: 7.18 h
HCC1954; Homo sapiens
  IC50: < 50 nM
OVCAR-3; [4]
  IC50: < 50 nM

## CC(C)(C)NS(=O)(=O)c1cccc(NC(=O)c2ccc(NS(=O)(=O)C3(C)CC3)cc2N2CCC(=C(F)F)CC2)c1 [Compound 39]
OVCAR-3; [4]
  IC50: < 50 nM

## Cc1cc(NC(=O)c2ccc(NS(=O)(=O)CCO)cc2N2CCC(=C(F)F)CC2)nc(N2CCC(F)(F)CC2)c1F [Compound 79]
[2]; [5]
  AUC(0-t): 2240 ng·h/mL
  Cmax: 160 ng/mL
  Tmax: 5.33 h
  half-life: 7.61 h
OVCAR-3; [4]
  IC50: < 50 nM

## Cc1cc(NC(=O)c2ccc(NS(=O)(=O)C(C)CO)cc2N2CCC(=C(F)F)CC2)nc(N2CCC(F)(F)CC2)n1 (stereo not shown) [Compound 52]
HCC1806; [3]
  IC50: < 100 nM
OVCAR-3; [4]
  IC50: < 50 nM

## Cc1cc(NC(=O)c2ccc(NS(=O)(=O)C(F)CO)cc2N2CCC(=C(F)F)CC2)nc(N2CCC(F)(F)CC2)n1 (stereo not shown) [Compound 72]
HCC1806; [3]
  IC50: < 500 nM
OVCAR-3; [4]
  IC50: < 200 nM

## Cc1cc(NC(=O)c2ccc(NS(=O)(=O)[C@@H](C)CO)cc2N2CCC(=C(F)F)CC2)nc(N2CCC(F)(F)CC2)n1 [Compound 69]
HCC1806; [3]
  IC50: < 200 nM
HCC1954; Homo sapiens
  IC50: < 200 nM
OVCAR-3; [4]
  IC50: < 100 nM

## O=C(Nc1cccc(N2CCC(F)(F)CC2)n1)c1ccc(NS(=O)(=O)CCO)cc1N1CCC(=C(F)F)CC1 [Compound 40]
OVCAR-3; [4]
  IC50: < 50 nM

## Cc1cc(NC(=O)c2ccc(NS(=O)(=O)CCO)nc2N2CCC(=C(F)F)CC2)nc(N2CCC(F)(F)CC2)n1 [Compound 65]
HCC1806; [3]
  IC50: < 1000 nM
OVCAR-3; [4]
  IC50: < 500 nM

## CC(C)(C)NS(=O)(=O)c1cccc(NC(=O)c2ccc(S(=O)(=O)C3COC3)cc2N2CCC(=C(F)F)CC2)c1 [Compound 73]
HCC1806; [3]
  IC50: < 500 nM
OVCAR-3; [4]
  IC50: < 200 nM

## N#Cc1ccc(NC(=O)c2ccc(NS(=O)(=O)CCO)cc2N2CCC(=C(F)F)CC2)nc1N1CCC(F)(F)CC1 [Compound 77]
OVCAR-3; [4]
  IC50: < 50 nM

## O=C(Nc1cccc(N2CC(F)(F)C2)n1)c1ccc(NS(=O)(=O)C2(CN3CCC3)CC2)cc1N1CCC2(CC1)CC2 [Compound 29]
HCC1806; Homo sapiens, HCC1806, 96 h
  IC50: < 1000 nM
OVCAR-3; Homo sapiens, OVCAR-3, 96 h
  IC50: < 500 nM

## Cc1cc(NC(=O)c2ccc(NS(=O)(=O)C(C)(C)CO)cc2N2CCC(=C(F)F)CC2)nc(N2CCC(F)(F)CC2)n1 [Compound 60]
HCC1806
  IC50: < 200 nM
[2]; male SD rats, oral 3 mg/kg
  AUC0-24 h: 1330.47 ng·h/mL
  Cmax: 90.70 ng/mL
  T1/2: 7.47 h
  Tmax: 6.67 h
KIF18A
  IC50: < 150 nM
HCC1954
  IC50: < 75 nM
OVCAR-3
  IC50: < 50 nM

## CC(C)=C1CCN(c2nc(NCCO)ccc2C(=O)Nc2cccc(S(=O)(=O)C3CCCC3)c2)CC1 [Compound 44]
OVCAR-3; [4]
  IC50: < 2000 nM

## Cc1cc(NC(=O)c2ccc(NS(=O)(=O)C3(CN4CC(O)C4)CC3)cc2N2CCC3(CC2)CC3)nc(N2CCC(F)(F)CC2)n1 [Compound 20]
HCC1806; [3]
  IC50: < 1000 nM
OVCAR-3; [4]
  IC50: < 1000 nM

## Cc1nc(N2CCC(F)(F)CC2)nc(NC(=O)c2ccc(NS(=O)(=O)CCO)cc2N2CCC(=C(F)F)CC2)c1F [Compound 74]
HCC1954; Homo sapiens
  IC50: < 1000 nM
OVCAR-3; [4]
  IC50: < 1000 nM
